Data: patent publication US20110270151A1, “IMAGE-GUIDED ENERGY DEPOSITION FOR TARGETED DRUG DELIVERY” (The Methodist Hospital Research Institute, priority 2008, published 2011)
Where a name gives a salt, the structure may show the parent alone.

Columns and labels:
Hsp70 [1] = settings: cited from earlier work
Hsp70 [2] = settings: cited from earlier work; remark: listed apart in the source
[3] = basic or acidic aqueous solution; cited from earlier work
HSP70 [4] = target: T1, HSP70 (Mus musculus, UniProt Q61696); test: in vivo analysis of FAM-labeled bifunctional molecule after hind limb heating; design: species or system mice; settings: 20 nmol i.v., about 4 hours post-injection (8 hrs post hyperthermia), dermis dissected
T1 construct: imaging an inducible target using an endogenous protein involved in stress response; from tissue; host or cells: heated right hind limb of live mice
T1 sequence (Q61696 whole entry): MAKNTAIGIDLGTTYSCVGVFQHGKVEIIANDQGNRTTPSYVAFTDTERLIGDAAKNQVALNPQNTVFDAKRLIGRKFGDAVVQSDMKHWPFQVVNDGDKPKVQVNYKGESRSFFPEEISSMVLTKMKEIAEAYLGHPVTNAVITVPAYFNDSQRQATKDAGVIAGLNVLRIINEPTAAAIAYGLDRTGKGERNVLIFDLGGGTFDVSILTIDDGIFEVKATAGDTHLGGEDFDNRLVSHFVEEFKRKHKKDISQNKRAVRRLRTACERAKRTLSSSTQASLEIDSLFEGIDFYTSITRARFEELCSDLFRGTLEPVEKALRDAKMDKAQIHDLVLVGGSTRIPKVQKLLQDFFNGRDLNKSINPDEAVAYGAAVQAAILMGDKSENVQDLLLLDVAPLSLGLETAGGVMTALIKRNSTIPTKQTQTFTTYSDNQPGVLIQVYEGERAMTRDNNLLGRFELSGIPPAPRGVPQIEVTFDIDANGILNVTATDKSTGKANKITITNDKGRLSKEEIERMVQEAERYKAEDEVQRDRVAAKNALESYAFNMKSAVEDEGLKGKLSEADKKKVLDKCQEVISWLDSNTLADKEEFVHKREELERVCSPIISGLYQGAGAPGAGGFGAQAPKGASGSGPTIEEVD
Description: As a control, 6-carboxyfluorescein (6-FAM) was administered at the same dose (20 nmol) in the same manner. Due to the high intrinsic autofluorescence of the dermis, experimental mice were sacrificed, the dermis dissected, and imaged on a small animal dedicated optical system (Xenogen/Caliper IVIS-200) using the appropriate excitation/emission filter set.

| fluorescence in heated limb tissue (HSP70 [4]) | Compound | Kd (Hsp70 [1]) | effect on Hsp70 steady state ATPase activity (Hsp70 [2]) | hydrolytic stability [3] |
| --- | --- | --- | --- | --- |
| – | N=C(N)NCCCCCCC(=O)N[C@@H](O)C(=O)NCCCCNCCCN (racemic) [Compound 15-DSG, (±)7-[(aminoiminomethyl)amino]-N-[2-[[4-[(3-aminopropyl)amino]butyl]amino]-1-hydroxy-2-oxoethyl]heptanamide trihydrochloride] | 4 µM | stimulates | hydrolyses gradually |
| minimal level of fluorescence | O=C(O)c1ccc2c(c1)C1(OC2=O)c2ccc(O)cc2Oc2cc(O)ccc21 [Compound 6-FAM, 6-carboxyfluorescein] | – | – | – |
